Key:
LNCaP = assay: SRB colorimetric cell growth inhibition assay, LNCaP; type: cell-based; conditions: LN-caP
Method in brief: (§1)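 After uninterrupted treatment, cultures are fixed and stained with sulforhodamine B, and absorbance reflects cell growth and viability. Each value represents the average of triplicate wells with SD.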

K-562 = assay: SRB colorimetric cell growth inhibition assay, K-562; type: cell-based; conditions: K-562
Method in brief: as §1

LoVo = assay: SRB colorimetric cell growth inhibition assay, LoVo; type: cell-based; conditions: LOVO
Method in brief: as §1

human topoisomerase I = target: T1, human topoisomerase I (Homo sapiens, UniProt P11387); assay: Topoisomerase I DNA relaxation assay (supercoiled plasmid DNA); type: biochemical; conditions: supercoiled plasmid DNA, each compound tested at 1 μM, agarose gel with ethidium bromide
T1 sequence (P11387 1-765): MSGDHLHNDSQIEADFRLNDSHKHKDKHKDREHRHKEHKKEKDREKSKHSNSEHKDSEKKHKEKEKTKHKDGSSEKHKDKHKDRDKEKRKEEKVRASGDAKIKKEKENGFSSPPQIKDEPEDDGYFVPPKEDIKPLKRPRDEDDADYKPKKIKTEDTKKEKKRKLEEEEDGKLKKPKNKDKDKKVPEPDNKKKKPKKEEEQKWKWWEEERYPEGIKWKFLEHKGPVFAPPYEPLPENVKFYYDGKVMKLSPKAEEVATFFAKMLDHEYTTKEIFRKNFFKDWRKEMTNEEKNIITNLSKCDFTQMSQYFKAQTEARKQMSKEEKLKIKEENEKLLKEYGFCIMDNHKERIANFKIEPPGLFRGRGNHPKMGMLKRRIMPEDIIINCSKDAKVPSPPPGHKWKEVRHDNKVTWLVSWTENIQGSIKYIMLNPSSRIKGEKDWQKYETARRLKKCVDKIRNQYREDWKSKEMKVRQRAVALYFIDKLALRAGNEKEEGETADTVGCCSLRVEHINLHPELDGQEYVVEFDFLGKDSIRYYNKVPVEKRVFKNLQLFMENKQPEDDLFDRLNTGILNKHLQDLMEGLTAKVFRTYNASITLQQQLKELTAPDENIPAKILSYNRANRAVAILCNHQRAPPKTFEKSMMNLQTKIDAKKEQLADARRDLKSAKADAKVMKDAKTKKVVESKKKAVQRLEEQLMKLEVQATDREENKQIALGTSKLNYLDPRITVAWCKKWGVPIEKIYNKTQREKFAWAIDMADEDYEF
Experimental: Two assays, based on DNA relaxation and DNA cleavage (Bailly, C. DNA relaxation and cleavage assays to study topoisomerase I inhibitors. Methods Enzymol. 2001, 340, 610-623) were used evaluate the effects of the lamellarin analogs on the catalytic activity of human topoisomerase I.
In the first assay, a supercoiled plasmid DNA was relaxed with topoisomerase I in the absence or presence of the test compounds, each tested at 1 μM. DNA relaxation products were then resolved by gel electrophoresis on agarose gels containing ethidium bromide to stain the DNA.

H-MEC-1 = assay: SRB colorimetric cell growth inhibition assay, H-MEC-1; type: cell-based; conditions: H-MEC-1
Description: (§2) A colorimetric type of assay, using sulforhodamine B (SRB) reaction has been adapted for a quantitative measurement of cell growth and viability (following the technique described by P. A. Skehan, et al., J. Natl. Cancer Inst. 1990, 82, 1107-1112).
(§3) This form of assay employs 96 well cell culture microplates of 9 mm diameter (T. Mosmann et al., J. of Immunological Methods 1983, 65, 55-63; G. T. Faircloth et al., J. of Tissue and Culture Methods 1988, 11, 201-205).
(§4) Most of the cell lines are obtained from American Type Culture Collection (ATCC) derived from different human cancer types.
(§5) The values for mean +/− SD of data from triplicate wells are calculated. Some parameters for cellular responses can be calculated: GI=growth inhibition, TGI=total growth inhibition (cytostatic effect) and LC=cell killing (cytotoxic effect).

SK-MEL-28 = assay: SRB colorimetric cell growth inhibition assay, SK-MEL-28; type: cell-based; conditions: MEL-28
Method in brief: as §1

IGROV-ET = assay: SRB colorimetric cell growth inhibition assay, IGROV-ET (ET-743 resistant); type: cell-based; conditions: IGROV-ET
Method in brief: as §1

HT-29 = assay: SRB colorimetric cell growth inhibition assay, HT-29; type: cell-based; conditions: HT-29
Method in brief: as §1

SK-BR-3 = assay: SRB colorimetric cell growth inhibition assay, SK-BR-3; type: cell-based; conditions: SK-BR-3
Method in brief: as §1

SKOV-3 = assay: SRB colorimetric cell growth inhibition assay, SKOV-3; type: cell-based; conditions: SKOV-3
Description: as §2, §3, §4, §5

PANC-1 = assay: SRB colorimetric cell growth inhibition assay, PANC-1; type: cell-based; conditions: PANC-1
Method in brief: as §1

IGROV = assay: SRB colorimetric cell growth inhibition assay, IGROV; type: cell-based; conditions: IGROV
Method in brief: as §1

DU-145 = assay: SRB colorimetric cell growth inhibition assay, DU-145; type: cell-based; conditions: DU-145
Method in brief: as §1

LoVo-Dox = assay: SRB colorimetric cell growth inhibition assay, LoVo-Dox (MDR); type: cell-based; conditions: LOVO-DOX
Method in brief: as §1

A-549 = assay: SRB colorimetric cell growth inhibition assay, A-549; type: cell-based; conditions: A-549
Method in brief: as §1

[1] = total growth inhibition (cytostatic effect)

COc1cc(-c2c3n(c4c(=O)oc5cc(OS(C)(=O)=O)c(OC)cc5c24)CCc2cc(OS(C)(=O)=O)c(OC)cc2-3)ccc1OS(C)(=O)=O [Compound 22]
GI50 (LNCaP; GI=growth inhibition, read-out: GI50 LN-caP): 0.564 µM
CC50 (LNCaP; cell killing (cytotoxic effect), read-out: LC50 LN-caP): 13.6 µM
TGI LN-caP (LNCaP; [1]): 1.82E−06 Molar
GI50 (K-562; GI=growth inhibition, read-out: GI50 K-562): 0.67 µM
CC50 (K-562; cell killing (cytotoxic effect), read-out: LC50 K-562): 13.6 µM
TGI K-562 (K-562; [1]): 4.77E−06 Molar
GI50 (LoVo; GI=growth inhibition, read-out: GI50 LOVO): 0.484 µM
CC50 (LoVo; cell killing (cytotoxic effect), read-out: LC50 LOVO): 13.6 µM
TGI LOVO (LoVo; [1]): 2.49E−06 Molar
stimulation of DNA cleavage by topoisomerase I / inhibition of topoisomerase I (nicked DNA band) in DNA relaxation assay (human topoisomerase I): inactive
GI50 (H-MEC-1; GI=growth inhibition, read-out: GI50 H-MEC-1): 0.856 µM
LC50 (concentration giving 50% net cell killing) (H-MEC-1; cell killing (cytotoxic effect)): 10.4 µM
TGI H-MEC-1 (H-MEC-1; [1]): 2.91E−06 Molar
GI50 (SK-MEL-28; GI=growth inhibition, read-out: GI50 MEL-28): 0.332 µM
CC50 (SK-MEL-28; cell killing (cytotoxic effect), read-out: LC50 MEL-28): 13.6 µM
TGI MEL-28 (SK-MEL-28; [1]): 3.56E−06 Molar
GI50 (IGROV-ET; GI=growth inhibition, read-out: GI50 IGROV-ET): 2.89 µM
CC50 (IGROV-ET; cell killing (cytotoxic effect), read-out: LC50 IGROV-ET): 13.6 µM
TGI IGROV-ET (IGROV-ET; [1]): 1.36E−05 Molar
GI50 (HT-29; GI=growth inhibition, read-out: GI50 HT-29): 0.879 µM
CC50 (HT-29; cell killing (cytotoxic effect), read-out: LC50 HT-29): 13.6 µM
TGI HT-29 (HT-29; [1]): 1.36E−05 Molar
GI50 (SK-BR-3; GI=growth inhibition, read-out: GI50 SK-BR-3): 0.257 µM
CC50 (SK-BR-3; cell killing (cytotoxic effect), read-out: LC50 SK-BR-3): 7.16 µM
TGI SK-BR-3 (SK-BR-3; [1]): 1.81E−06 Molar
GI50 (SKOV-3; GI=growth inhibition, read-out: GI50 SKOV-3): 0.201 µM
LC50 (concentration causing 50% net cell killing) (SKOV-3; cell killing (cytotoxic effect), read-out: LC50 SKOV-3): 13.6 µM
TGI SKOV-3 (SKOV-3; [1]): 2.22E−06 Molar
GI50 (PANC-1; GI=growth inhibition, read-out: GI50 PANC-1): 0.976 µM
CC50 (PANC-1; cell killing (cytotoxic effect), read-out: LC50 PANC-1): 13.6 µM
TGI PANC-1 (PANC-1; [1]): 1.36E−05 Molar
GI50 (IGROV; GI=growth inhibition, read-out: GI50 IGROV): 0.787 µM
CC50 (IGROV; cell killing (cytotoxic effect), read-out: LC50 IGROV): 13.6 µM
TGI IGROV (IGROV; [1]): 8.54E−06 Molar
GI50 (DU-145; GI=growth inhibition, read-out: GI50 DU-145): 0.743 µM
CC50 (DU-145; cell killing (cytotoxic effect), read-out: LC50 DU-145): 13.6 µM
TGI DU-145 (DU-145; [1]): 8.10E−06 Molar
GI50 (LoVo-Dox; GI=growth inhibition, read-out: GI50 LOVO-DOX): 6.59 µM
CC50 (LoVo-Dox; cell killing (cytotoxic effect), read-out: LC50 LOVO-DOX): 13.6 µM
TGI LOVO-DOX (LoVo-Dox; [1]): 1.36E−05 Molar
GI50 (A-549; GI=growth inhibition, read-out: GI50 A-549): 0.89 µM
CC50 (A-549; cell killing (cytotoxic effect), read-out: LC50 A-549): 13.6 µM
TGI A-549 (A-549; [1]): 7.73E−06 Molar

Source: US7396837B2, “Antitumoral analogs of lamellarins” (Pharma Mar, S.A.U., priority 2002, dated 2008)
